The values below come from patent US20250179103A1, “6-OXODECAHYDROPYRROLO[1,2-A][1,5]DIAZOCINE AND 6-OXODECAHYDRO-4H-PYRROLO[2,1-D][1,5]THIAZOCINE DERIVATIVES AS STAT3 AND STAT6 MODULATORS FOR THE TREATMENT OF CANCER AND INFLAMMATORY CONDITIONS” (Recludix Pharma, Inc., priority 2022, published 2025).

The target of assay [1] is T1, Recombinant STAT6 protein (STAT6(W123-T658)) (Homo sapiens, UniProt P42226).
T1 construct: Recombinant STAT6 protein (STAT6(W123-T658))
T1 sequence (P42226 123-658): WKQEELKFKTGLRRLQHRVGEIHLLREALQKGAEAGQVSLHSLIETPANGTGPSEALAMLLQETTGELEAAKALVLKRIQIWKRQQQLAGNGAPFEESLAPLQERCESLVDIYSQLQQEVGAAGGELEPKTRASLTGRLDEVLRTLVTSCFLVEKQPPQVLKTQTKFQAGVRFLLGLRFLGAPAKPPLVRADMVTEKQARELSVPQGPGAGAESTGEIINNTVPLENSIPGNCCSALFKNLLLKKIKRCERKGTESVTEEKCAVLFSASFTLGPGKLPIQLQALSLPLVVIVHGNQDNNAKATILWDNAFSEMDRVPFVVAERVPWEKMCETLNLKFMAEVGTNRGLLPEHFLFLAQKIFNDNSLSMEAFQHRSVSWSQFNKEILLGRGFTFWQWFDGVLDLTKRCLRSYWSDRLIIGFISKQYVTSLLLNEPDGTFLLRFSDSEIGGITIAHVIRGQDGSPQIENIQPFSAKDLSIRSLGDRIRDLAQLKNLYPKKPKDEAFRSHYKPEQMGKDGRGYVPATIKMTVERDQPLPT
In words: STAT6 Fluorescence Polarization (FP) Assay. In kind it is binding. Conditions: STAT6(W123-T658) 250 nM, probe 5-FAM-ApYKPFQDLI-NH2 2 nM, 45-minute incubation. In outline: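 Displacement of a fluorescent phosphotyrosine peptide (5-FAM-ApYKPFQDLI-NH2, 2 nM) from STAT6(W123-T658) (250 nM), 1% DMSO, pH 7.4 HEPES buffer. After 45 min at room temperature, polarization (mP) was plotted versus log compound concentration and fitted by nonlinear regression to give IC50.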
(Fluorescence polarisation rises when a labelled molecule tumbles more slowly, as on binding a larger partner.)

In assay [2] the target is T2, Recombinant STAT3 protein (STAT3(G127-I722)) (Homo sapiens, UniProt P40763).
T2 construct: Recombinant STAT3 protein (STAT3(G127-I722))
The assay can be described thus: STAT3 Fluorescence Polarization (FP) Assay. The class given is binding. Conditions: STAT3(G127-I722) 25 nM, probe 5-FAM-GpYLPQTV-NH2 2 nM, 45-minute incubation. In a few lines: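 STAT3(G127-I722), 25 nM, was mixed with 2 nM 5-FAM-GpYLPQTV-NH2 probe in HEPES pH 7.4 buffer with 1% DMSO and serially diluted compound. FP (mP) was read after 45 min at room temperature. IC50 came from nonlinear regression.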

T2 sequence (P40763 127-722): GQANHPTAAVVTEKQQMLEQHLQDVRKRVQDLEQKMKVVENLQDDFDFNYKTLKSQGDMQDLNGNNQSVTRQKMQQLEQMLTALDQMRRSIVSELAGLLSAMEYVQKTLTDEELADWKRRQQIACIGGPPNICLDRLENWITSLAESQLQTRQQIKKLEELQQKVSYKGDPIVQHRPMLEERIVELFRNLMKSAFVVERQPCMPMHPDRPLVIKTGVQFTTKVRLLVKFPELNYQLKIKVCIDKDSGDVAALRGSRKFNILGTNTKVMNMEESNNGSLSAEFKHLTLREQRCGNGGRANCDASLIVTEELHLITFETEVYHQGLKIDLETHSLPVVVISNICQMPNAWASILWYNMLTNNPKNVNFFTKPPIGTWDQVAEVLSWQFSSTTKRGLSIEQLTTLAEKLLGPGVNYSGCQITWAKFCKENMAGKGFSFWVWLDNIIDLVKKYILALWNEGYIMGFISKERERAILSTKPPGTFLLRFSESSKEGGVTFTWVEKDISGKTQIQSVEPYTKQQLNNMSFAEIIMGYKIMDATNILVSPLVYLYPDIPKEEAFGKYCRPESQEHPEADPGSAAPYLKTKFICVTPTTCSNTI

Turning to `Cc1ccc2onc(C(=O)N3CC[C@H]4CC[C@@H](C(=O)N5CCOC[C@H]5c5ccccc5)N4C(=O)[C@@H](NC(=O)c4ccc5ccc(C(F)P(=O)(O)O)cc5c4)C3)c2c1` (stereo partly drawn) [Compound 371, (fluoro(7-(((5S,8S,10aR)-3-(5-methylbenzo[d]isoxazole-3-carbonyl)-6-oxo-8-((R)-3-phenylmorpholine-4-carbonyl)decahydro-pyrrolo[1,2-a][1,5]diazocin-5-yl)carbamoyl)naphthalen-2-yl)methyl)phosphonic acid], the results for the concentration for half-maximal inhibition (IC50) in assay [1] and in assay [2] were ≤ 0.3 µM and > 10 µM, respectively.

Regarding `Cc1ccc2onc(C(=O)N3CC[C@H]4CC[C@@H](C(=O)N5C[C@@H]6C[C@H]5CO6)N4C(=O)[C@@H](NC(=O)c4ccc5ccc(C(F)P(=O)(O)O)cc5c4)C3)c2c1` (stereo partly drawn) [Compound 372, ((7-(((5S,8S,10aR)-8-((1S,4S)-2-oxa-5-azabicyclo[2.2.1]heptane-5-carbonyl)-3-(5-methylbenzo[d]isoxazole-3-carbonyl)-6-oxodecahydropyrrolo [1,2-a][1,5]diazocin-5-yl)carbamoyl)naphthalen-2-yl)fluoromethyl)phosphonic acid], the IC50 (usually the midpoint of a concentration-inhibition curve) is ≤ 0.3 µM in assay [1] and > 10 µM in assay [2].

`Cc1ccc2onc(C(=O)N3CC[C@H]4CC[C@@H](C(=O)N5CCOC(Cc6ccccc6)C5)N4C(=O)[C@@H](NC(=O)c4ccc5ccc(C(F)P(=O)(O)O)cc5c4)C3)c2c1` (stereo partly drawn) [Compound 373, ((7-(((5S,8S,10aR)-8-(2-benzylmorpholine-4-carbonyl)-3-(5-methylbenzo[d]isoxazole-3-carbonyl)-6-oxodecahydropyrrolo [1,2-a][1,5]diazocin-5-yl)carbamoyl)naphthalen-2-yl)fluoromethyl) phosphonic acid]: the IC50 in assay [1] was ≤ 0.3 µM; in assay [2] it was > 10 µM.

As for `CCc1ccc2onc(C(=O)N3CC[C@H]4CC[C@@H](C(=O)N5CCOCC56CC6)N4C(=O)[C@@H](NC(=O)c4ccc5ccc(C(F)P(=O)(O)O)cc5c4)C3)c2c1` (stereo partly drawn) [Compound 374, ((7-(((5S,8S,10aR)-3-(5-ethylbenzo[d]isoxazole-3-carbonyl)-6-oxo-8-(7-oxa-4-azaspiro[2.5]octane-4-carbonyl)decahydropyrrolo[1,2-a][1,5]diazocin-5-yl)carbamoyl)naphthalen-2-yl)fluoromethyl) phosphonic acid], the IC50 was ≤ 0.3 µM in assay [1] and > 10 µM in assay [2].

In the case of `Cc1ccc2onc(C(=O)N3CC[C@H]4CC[C@@H](C(=O)N5CCOCC5)N4C(=O)[C@@H](NC(=O)c4ccc5ncc(C(F)P(=O)(O)O)cc5c4)C3)c2c1` (stereo partly drawn) [Compound 376, (fluoro(6-(((5S,8S, 10aR)-3-(5-methylbenzo[d]isoxazole-3-carbonyl)-8-(morpholine-4-carbonyl)-6-oxodecahydropyrrolo [1,2-a][1,5]diazocin-5-yl)carbamoyl)quinolin-3-yl)methyl)phosphonic acid], the values for the 50% inhibitory concentration (IC50) in assay [1] and in assay [2] were 0.3 to 3 µM and > 10 µM, respectively.

Consider `Cc1ccc2onc(C(=O)N3CC[C@H]4CC[C@@H](C(=O)N5CC6CCC(C5)O6)N4C(=O)[C@@H](NC(=O)c4ccc5ccc([C@H](F)P(=O)(O)O)cc5c4)C3)c2c1` [Compound 377, ((1R)-(7-(((5S,8S,10aR)-8-(8-oxa-3-azabicyclo[3.2.1]octane-3-carbonyl)-3-(5-methylbenzo[d]isoxazole-3-carbonyl)-6-oxodecahydropyrrolo [1,2-a][1,5]diazocin-5-yl)carbamoyl)naphthalen-2-yl)fluoromethyl)phosphonic acid], for which the figures for the IC50 in assay [1] and in assay [2] were ≤ 0.3 µM and > 10 µM, respectively.

For the compound `Cc1ccc2onc(C(=O)N3CC[C@H]4CC[C@@H](C(=O)N5CCOCC5)N4C(=O)[C@@H](NC(=O)c4cc(C#N)c5ccc(CP(=O)(O)O)cc5c4)C3)c2c1` [Compound 378, ((5-cyano-7-(((5S,8S, 10aR)-3-(5-methylbenzo[d]isoxazole-3-carbonyl)-8-(morpholine-4-carbonyl)-6-oxodecahydropyrrolo [1,2-a][1,5]diazocin-5-yl)carbamoyl)naphthalen-2-yl)methyl) phosphonic acid], the values for the IC50 in assay [1] and in assay [2] were 0.3 to 3 µM and > 10 µM, respectively.

`Cc1ccc2onc(C(=O)N3CC[C@H]4CC[C@@H](C(=O)N5CCOCC5)N4C(=O)[C@@H](NC(=O)c4ccc5c(F)cc(CP(=O)(O)O)cc5c4)C3)c2c1` [Compound 379, ((4-fluoro-7-(((5S,8S, 10aR)-3-(5-methylbenzo[d]isoxazole-3-carbonyl)-8-(morpholine-4-carbonyl)-6-oxodecahydropyrrolo [1,2-a][1,5]diazocin-5-yl)carbamoyl)naphthalen-2-yl)methyl)phosphonic acid]: the IC50 in assay [1] was 0.3 to 3 µM; in assay [2], > 10 µM.

`Cc1ccc2onc(C(=O)N3CC[C@H]4CC[C@@H](C(=O)N5C[C@@H](c6ccn(C)c(=O)c6)CC56CC6)N4C(=O)[C@@H](NC(=O)c4ccc5ccc([C@@H](F)P(=O)(O)O)cc5c4)C3)c2c1` [Compound 380, ((S)-fluoro(7-(((5S,8S, 10aR)-8-((R)-6-(1-methyl-2-oxo-1,2-dihydropyridin-4-yl)-4-azaspiro[2.4]heptane-4-carbonyl)-3-(5-methylbenzo[d]isoxazole-3-carbonyl)-6-oxodecahydropyrrolo [1,2-a][1,5]diazocin-5-yl)carbamoyl)naphthalen-2-yl)methyl)phosphonic acid]: the figures for the IC50 in assay [1] and in assay [2] were ≤ 0.3 µM and > 10 µM, respectively.

In the case of `Cc1ccc2onc(C(=O)N3CC[C@H]4CC[C@@H](C(=O)N5C[C@H](c6cc[nH]c(=O)c6)CC56CC6)N4C(=O)[C@@H](NC(=O)c4ccc5ccc(C(F)(F)P(=O)(O)O)cc5c4)C3)c2c1` [Compound 381, (difluoro(7-(((5S,8S, 10aR)-3-(5-methylbenzo[d]isoxazole-3-carbonyl)-6-oxo-8-((S)-6-(2-oxo-1,2-dihydropyridin-4-yl)-4-azaspiro[2.4]heptane-4-carbonyl)decahydropyrrolo [1,2-a][1,5]diazocin-5-yl)carbamoyl)naphthalen-2-yl)methyl)phosphonic acid], the IC50 in assay [1] is ≤ 0.3 µM; in assay [2], 1 to 10 µM.

Take `Cc1ccc2onc(C(=O)N3CC[C@H]4CC[C@@H](C(=O)N5C[C@H](c6ccn(C)c(=O)c6)CC56CC6)N4C(=O)[C@@H](NC(=O)c4ccc5ccc(C(F)(F)P(=O)(O)O)cc5c4)C3)c2c1` [Compound 382, (difluoro(7-(((5S,8S, 10aR)-8-((S)-6-(1-methyl-2-oxo-1,2-dihydropyridin-4-yl)-4-azaspiro[2.4]heptane-4-carbonyl)-3-(5-methylbenzo[d]isoxazole-3-carbonyl)-6-oxodecahydropyrrolo [1,2-a][1,5]diazocin-5-yl)carbamoyl)naphthalen-2-yl)methyl)phosphonic acid]: the values for the IC50 in assay [1] and in assay [2] were ≤ 0.3 µM and 1 to 10 µM, respectively.

Turning to `Cc1ccc2onc(C(=O)N3CC[C@H]4CC[C@@H](C(=O)N5C[C@@H](c6ccn(C)c(=O)c6)CC56CC6)N4C(=O)[C@@H](NC(=O)c4ccc5ccc(C(F)(F)P(=O)(O)O)cc5c4)C3)c2c1` [Compound 383, (difluoro(7-(((5S,8S, 10aR)-8-((R)-6-(1-methyl-2-oxo-1,2-dihydropyridin-4-yl)-4-azaspiro[2.4]heptane-4-carbonyl)-3-(5-methylbenzo[d]isoxazole-3-carbonyl)-6-oxodecahydropyrrolo [1,2-a][1,5]diazocin-5-yl)carbamoyl)naphthalen-2-yl)methyl)phosphonic acid], the concentration for half-maximal inhibition (IC50) in assay [1] is ≤ 0.3 µM; in assay [2], 1 to 10 µM.

As for `Cc1ccc2onc(C(=O)N3CC[C@H]4CC[C@@H](C(=O)N5CCOCC5)N4C(=O)[C@@H](NC(=O)c4ccc5c(C#N)cc(CP(=O)(O)O)cc5c4)C3)c2c1` [Compound 384, ((4-cyano-7-(((5S,8S, 10aR)-3-(5-methylbenzo[d]isoxazole-3-carbonyl)-8-(morpholine-4-carbonyl)-6-oxodecahydropyrrolo [1,2-a][1,5]diazocin-5-yl)carbamoyl)naphthalen-2-yl)methyl) phosphonic acid], the 50% inhibitory concentration (IC50) was 0.3 to 3 µM in assay [1] and > 10 µM in assay [2].

`Cc1ccc2onc(C(=O)N3CC[C@H]4CC[C@@H](C(=O)N5C[C@@H](c6cc[nH]c(=O)c6)CC56CC6)N4C(=O)[C@@H](NC(=O)c4ccc5ccc(C(F)(F)P(=O)(O)O)cc5c4)C3)c2c1` [Compound 385, (difluoro(7-(((5S,8S, 10aR)-3-(5-methyl-benzo[d]isoxazole-3-carbonyl)-6-oxo-8-((R)-6-(2-oxo-1,2-dihydro-pyridin-4-yl)-4-azaspiro [2.4]heptane-4-carbonyl)decahydro-pyrrolo[1,2-a][1,5]diazocin-5-yl)carbamoyl)naphthalen-2-yl)methyl) phosphonic acid]: the IC50 is ≤ 0.3 µM in assay [1] and 1 to 10 µM in assay [2].
